Target: T1, PI3Kδ (PI3 Kd) (Homo sapiens, UniProt O00329)
T1 construct: purchased Millipore
Test: PI3K HTRF enzymatic inhibition assay (cell-free), PI3Kd
Assay type: biochemical
Description: PI3K α, β, δ and γ Enzymatic Inhibition Assays
Compounds were screened for their ability to inhibit PI3Kα (PI3Kα), PI3Kβ (PI3 Kb), PI3Kδ (PI3 Kd) and PI3Kγ (PI3 Kg) using a cell-free based PI3K HTRF™ assay (Millipore, ref. #33-017) All reagents to perform the reactions were prepared according to the manufacturer protocol. All PI3K enzymes were recombinant and were purchased at Millipore.
These concentrations were final in the assay. • 3) A reservoir plate containing Adenosine TriPhosphate (ATP) diluted in the Millipore kit buffer was prepared for each isoform. […] Incubation was done for 8 minutes (for all four isoforms) then the reaction was stopped by addition of the Stop solution. The Detection solution was added. These solutions were prepared previously according to the kit specifications.

T1 sequence (O00329 whole entry): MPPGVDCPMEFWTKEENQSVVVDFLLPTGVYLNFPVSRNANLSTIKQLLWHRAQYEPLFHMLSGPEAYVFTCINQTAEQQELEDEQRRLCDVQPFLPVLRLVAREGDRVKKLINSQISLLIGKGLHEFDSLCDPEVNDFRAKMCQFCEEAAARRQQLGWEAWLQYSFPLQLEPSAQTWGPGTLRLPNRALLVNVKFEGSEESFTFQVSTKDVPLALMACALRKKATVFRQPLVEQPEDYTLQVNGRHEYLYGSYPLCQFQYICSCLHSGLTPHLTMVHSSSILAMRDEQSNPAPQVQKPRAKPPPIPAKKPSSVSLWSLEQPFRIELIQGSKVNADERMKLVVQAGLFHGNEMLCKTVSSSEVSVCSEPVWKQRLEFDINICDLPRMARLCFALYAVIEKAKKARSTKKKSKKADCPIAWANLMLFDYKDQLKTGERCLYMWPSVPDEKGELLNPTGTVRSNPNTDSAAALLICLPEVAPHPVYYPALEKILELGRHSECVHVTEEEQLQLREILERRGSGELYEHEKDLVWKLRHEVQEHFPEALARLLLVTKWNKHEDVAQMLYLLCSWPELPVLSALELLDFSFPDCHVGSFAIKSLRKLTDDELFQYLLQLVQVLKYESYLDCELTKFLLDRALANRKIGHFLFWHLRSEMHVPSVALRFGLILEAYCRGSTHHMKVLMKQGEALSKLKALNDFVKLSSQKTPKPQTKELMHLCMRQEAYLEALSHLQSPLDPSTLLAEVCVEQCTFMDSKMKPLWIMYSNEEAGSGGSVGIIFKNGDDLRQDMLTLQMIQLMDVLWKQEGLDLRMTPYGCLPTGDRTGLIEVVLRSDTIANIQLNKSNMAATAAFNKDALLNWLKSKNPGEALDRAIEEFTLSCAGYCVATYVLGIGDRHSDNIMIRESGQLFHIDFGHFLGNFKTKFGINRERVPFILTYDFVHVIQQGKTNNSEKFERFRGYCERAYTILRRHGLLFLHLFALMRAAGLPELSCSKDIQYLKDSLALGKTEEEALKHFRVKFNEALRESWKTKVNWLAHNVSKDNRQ
T1 sequence (P27986 whole entry partner): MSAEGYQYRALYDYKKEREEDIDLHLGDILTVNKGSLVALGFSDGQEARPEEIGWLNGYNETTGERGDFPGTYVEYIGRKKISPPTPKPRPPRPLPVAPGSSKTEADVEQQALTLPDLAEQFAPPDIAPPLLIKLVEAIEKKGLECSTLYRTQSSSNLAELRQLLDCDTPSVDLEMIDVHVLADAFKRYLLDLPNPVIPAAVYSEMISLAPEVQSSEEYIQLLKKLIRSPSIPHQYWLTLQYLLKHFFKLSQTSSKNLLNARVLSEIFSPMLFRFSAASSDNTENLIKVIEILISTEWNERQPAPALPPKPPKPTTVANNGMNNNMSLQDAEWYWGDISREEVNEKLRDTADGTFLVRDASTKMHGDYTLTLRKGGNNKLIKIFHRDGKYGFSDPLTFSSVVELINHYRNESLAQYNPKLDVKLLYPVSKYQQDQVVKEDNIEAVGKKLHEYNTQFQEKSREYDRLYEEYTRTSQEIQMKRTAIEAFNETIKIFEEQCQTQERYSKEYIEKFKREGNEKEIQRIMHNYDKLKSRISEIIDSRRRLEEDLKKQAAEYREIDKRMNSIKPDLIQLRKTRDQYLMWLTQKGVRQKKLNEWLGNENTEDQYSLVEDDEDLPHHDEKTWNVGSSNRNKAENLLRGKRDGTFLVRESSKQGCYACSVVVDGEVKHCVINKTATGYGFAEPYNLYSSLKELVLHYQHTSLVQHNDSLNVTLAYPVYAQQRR

Row | IC50 | Compound
1 | 0.67 µM | N#Cc1c(N)ncnc1N[C@@H](CCO)c1nn2cccc2c(=O)[nH]1 [Example 165, (S)-4-Amino-6-(3-hydroxy-1-(4-oxo-3,4-dihydropyrrolo[1,2-f][1,2,4]triazin-2-yl)propylamino)pyrimidine-5-carbonitrile]
2 | 0.029 µM | O=c1c2cccn2nc([C@@H]2CCCN2c2ncnc3[nH]cnc23)n1-c1ccccc1 [Example 44, (S)-2-(1-(9H-Purin-6-yl)pyrrolidin-2-yl)-3-phenylpyrrolo[1,2-f][1,2,4]triazin-4(3H)-one]
3 | 0.069 µM | C[C@H](Nc1nc(N)nc2[nH]cnc12)c1nn2ccnc2c(=O)n1-c1ccccc1 [Example 64, (S)-2-(1-(2-Amino-9H-purin-6-ylamino)ethyl)-3-phenylimidazo[1,2-f][1,2,4]triazin-4(3H)-one]
4 | 0.067 µM | CCCOC(=O)c1ccn2nc(C(C)Nc3ncnc(N)c3C#N)n(-c3ccccc3)c(=O)c12 [Example 164, (S)-Propyl 2-(1-(6-amino-5-cyanopyrimidin-4-ylamino)ethyl)-4-oxo-3-phenyl-3,4-dihydropyrrolo[1,2-f][1,2,4]triazine-5-carboxylate]
5 | 0.011 µM | C[C@H](Nc1ncnc(N)c1C#N)c1nn2ccc(C(F)(F)F)c2c(=O)n1C1CCCOC1 (single isomer, unassigned) [Example 133]
6 | 0.035 µM | C[C@H](Nc1ncnc(N)c1C#N)c1nn2ccc(CCO)c2c(=O)n1-c1ccccc1 [Example 159, (S)-4-Amino-6-(1-(5-(2-hydroxyethyl)-4-oxo-3-phenyl-3,4-dihydropyrrolo[1,2-f][1,2,4]triazin-2-yl)ethylamino)pyrimidine-5-carbonitrile]
7 | 0.007 µM | C[C@H](Nc1ncnc(N)c1C#N)c1nn2cccc2c(=O)n1-c1cccc(O)c1 [Example 179]
8 | 0.09 µM | Cc1nc(-c2ccn3nc([C@H](C)Nc4ncnc5[nH]cnc45)n(-c4cc(F)cc(F)c4)c(=O)c23)no1 [Example 125, (S)-2-(1-(9H-Purin-6-ylamino)ethyl)-3-(3,5-difluorophenyl)-5-(5-methyl-1,2,4-oxadiazol-3-yl)pyrrolo[1,2-f][1,2,4]triazin-4(3H)-one]
9 | 0.011 µM | C[C@H](Nc1ncnc2[nH]cnc12)c1nn2cccc2c(=O)n1-c1ccccc1 [Example 20, (S)-2-(1-(9H-Purin-6-ylamino)ethyl)-3-phenylpyrrolo[1,2-f][1,2,4]triazin-4(3H)-one]
10 | 0.006 µM | C[C@H](Nc1ncnc2[nH]cnc12)c1nn2ccc(C#N)c2c(=O)n1-c1ccccc1 [Example 61, (S)-2-(1-(9H-Purin-6-ylamino)ethyl)-4-oxo-3-phenyl-3,4-dihydropyrrolo[1,2-f][1,2,4]triazine-5-carbonitrile]
11 | 2.93 µM | C[C@H](Nc1ncnc(N)c1C#N)c1nn2ccc(CN3CCOCC3)c2c(=O)n1-c1ccccc1 [Example 122, (S)-4-Amino-6-(1-(5-(morpholinomethyl)-4-oxo-3-phenyl-3,4-dihydropyrrolo[1,2-f][1,2,4]triazin-2-yl)ethylamino)pyrimidine-5-carbonitrile]
12 | 0.036 µM | C[C@H](Nc1ncnc(N)c1C#N)c1nn2ccc(C#N)c2c(=O)n1-c1cc(Cl)cc(Cl)c1 [Example 104, (S)-2-(1-(6-Amino-5-cyanopyrimidin-4-ylamino)ethyl)-3-(3,5-dichlorophenyl)-4-oxo-3,4-dihydropyrrolo[1,2-f][1,2,4]triazine-5-carbonitrile]
13 | 0.009 µM | CC[C@H](Nc1nc(N)nc2[nH]cnc12)c1nn2cccc2c(=O)n1-c1ccccc1 [Example 17, (S)-2-(1-(2-Amino-9H-purin-6-ylamino)propyl)-3-phenylpyrrolo[1,2-f][1,2,4]triazin-4(3H)-one]
14 | 0.024 µM | C[C@H](Nc1ncnc(N)c1C#N)c1nn2cccc2c(=O)n1C1CCOCC1 [Example 136, (S)-4-Amino-6-(1-(4-oxo-3-(tetrahydro-2H-pyran-4-yl)-3,4-dihydropyrrolo[1,2-f][1,2,4]triazin-2-yl)ethylamino)pyrimidine-5-carbonitrile]
15 | 0.011 µM | C[C@H](Nc1ncnc(N)c1C#N)c1nn2cccc2c(=O)n1-c1ccccn1 [Example 43, (S)-4-Amino-6-(1-(4-oxo-3-(pyridin-2-yl)-3,4-dihydropyrrolo[1,2-f][1,2,4]triazin-2-yl)ethylamino)pyrimidine-5-carbonitrile]
16 | 0.038 µM | C[C@H](Nc1ncnc(N)c1C#N)c1nn2ccc(C#N)c2c(=O)n1C1CCCOC1 (single isomer, unassigned) [Example 129]
17 | 0.089 µM | Cc1cc(-n2c([C@H](C)Nc3ncnc(N)c3C#N)nn3cccc3c2=O)n[nH]1 [Example 127, (S)-4-Amino-6-(1-(3-(5-methyl-1H-pyrazol-3-yl)-4-oxo-3,4-dihydropyrrolo[1,2-f][1,2,4]triazin-2-yl)ethylamino)pyrimidine-5-carbonitrile]
18 | 0.376 µM | Nc1ncnc2c1ncn2Cc1nn2ccc(Cl)c2c(=O)n1Cc1ccccc1 [Example 29]
19 | 0.032 µM | C[C@H](Nc1ncnc(N)c1C#N)c1nn2ccc(C#N)c2c(=O)n1-c1cccc(C(F)(F)F)c1 [Example 176, (S)-2-(1-(6-Amino-5-cyanopyrimidin-4-ylamino)ethyl)-4-oxo-3-(3-(trifluoromethyl)phenyl)-3,4-dihydropyrrolo[1,2-f][1,2,4]triazine-5-carbonitrile]
20 | 0.011 µM | C[C@H](Nc1ncnc(N)c1C#N)c1nn2cccc2c(=O)n1-c1cn[nH]c1 [Example 124, (S)-4-Amino-6-(1-(4-oxo-3-(1H-pyrazol-4-yl)-3,4-dihydropyrrolo[1,2-f][1,2,4]triazin-2-yl)ethylamino)pyrimidine-5-carbonitrile]
21 | 0.001 µM | C[C@H](Nc1ncnc(N)c1C#N)c1nn2ccc(Br)c2c(=O)n1-c1ccccc1 [Example 144, (S)-4-Amino-6-(1-(5-bromo-4-oxo-3-phenyl-3,4-dihydropyrrolo[1,2-f][1,2,4]triazin-2-yl)ethylamino)pyrimidine-5-carbonitrile]
22 | 0.006 µM | C[C@H](Nc1ncnc(N)c1C#N)c1nn2ccc(Br)c2c(=O)n1-c1cccc(C(F)(F)F)c1 [Example 169, (S)-4-Amino-6-(1-(5-bromo-4-oxo-3-(3-(trifluoromethyl)phenyl)-3,4-dihydropyrrolo[1,2-f][1,2,4]triazin-2-yl)ethylamino)pyrimidine-5-carbonitrile]
23 | 0.042 µM | C[C@H](Nc1ncnc(N)c1F)c1nn2ccc(C(F)F)c2c(=O)n1-c1cc(F)cc(F)c1 [Example 102, (S)-2-(1-(6-Amino-5-fluoropyrimidin-4-ylamino)ethyl)-5-(difluoromethyl)-3-(3,5-difluorophenyl)pyrrolo[1,2-f][1,2,4]triazin-4(3H)-one]
24 | 0.005 µM | C[C@H](Nc1nc(N)nc2[nH]cnc12)c1nn2cccc2c(=O)n1-c1ccccc1 [Example 21, (S)-2-(1-(2-Amino-9H-purin-6-ylamino)ethyl)-3-phenylpyrrolo[1,2-f][1,2,4]triazin-4(3H)-one]
25 | 0.001 µM | Cc1ccn2nc([C@H](C)Nc3ncnc4[nH]cnc34)n(-c3ccccc3)c(=O)c12 [Example 68, (S)-2-(1-(9H-Purin-6-ylamino)ethyl)-5-methyl-3-phenyl pyrrolo[1,2-f][1,2,4]triazin-4(3H)-one]
26 | 0.015 µM | C[C@H](Nc1ncnc2[nH]cnc12)c1nn2cccc2c(=O)n1-c1cc(F)cc(F)c1 [Example 37, (S)-2-(1-(9H-Purin-6-ylamino)ethyl)-3-(3,5-difluorophenyl)pyrrolo[1,2-f][1,2,4]triazin-4(3H)-one]
27 | 0.015 µM | Nc1nc(N2CCC[C@H]2c2nn3cccc3c(=O)n2-c2ccccc2)c2nc[nH]c2n1 [Example 56, (S)-2-(1-(2-Amino-9H-purin-6-yl)pyrrolidin-2-yl)-3-phenyl pyrrolo[1,2-f][1,2,4]triazin-4(3H)-one]
28 | 0.007 µM | C[C@H](Nc1ncnc2[nH]cnc12)c1nn2ccc(C(F)(F)F)c2c(=O)n1-c1cc(F)cc(F)c1 [Example 90, (S)-2-(1-(9H-Purin-6-ylamino)ethyl)-3-(3,5-difluorophenyl)-5-(trifluoromethyl)pyrrolo[1,2-f][1,2,4]triazin-4(3H)-one]
29 | 0.001 µM | C[C@H](Nc1ncnc(N)c1C#N)c1nn2ccc(C(F)F)c2c(=O)n1-c1ccccc1 [Example 47, (S)-4-Amino-6-(1-(5-(difluoromethyl)-4-oxo-3-phenyl-3,4-dihydropyrrolo[1,2-f][1,2,4]triazin-2-yl)ethylamino)pyrimidine-5-carbonitrile]

Row | Compound | IC50
30 | C[C@H](Nc1ncnc(N)c1C#N)c1nn2cc(F)cc2c(=O)n1-c1ccccc1 [Example 75, (S)-4-Amino-6-(1-(6-fluoro-4-oxo-3-phenyl-3,4-dihydropyrrolo[1,2-f][1,2,4]triazin-2-yl)ethylamino)pyrimidine-5-carbonitrile] | 0.017 µM
31 | C[C@H](Nc1ccnc2ccnn12)c1nn2cccc2c(=O)n1-c1ccccc1 [Example 54, (S)-3-Phenyl-2-(1-(pyrazolo[1,5-a]pyrimidin-7-ylamino)ethyl)pyrrolo[1,2-f][1,2,4]triazin-4(3H)-one] | 0.06 µM
32 | C[C@H](Nc1ncnc(N)c1C#N)c1nn2ccnc2c(=O)n1-c1ccccc1 [Example 50, (S)-4-amino-6-(1-(4-oxo-3-phenyl-3,4-dihydroimidazo[1,2-f][1,2,4]triazin-2-yl)ethylamino)pyrimidine-5-carbonitrile] | 0.057 µM
33 | N#Cc1c(N)ncnc1N1CC(F)(F)C[C@H]1c1nn2cccc2c(=O)n1-c1ccccc1 [Example 73, (S)-4-Amino-6-(4,4-difluoro-2-(4-oxo-3-phenyl-3,4-dihydropyrrolo[1,2-f][1,2,4]triazin-2-yl)pyrrolidin-1-yl)pyrimidine-5-carbonitrile] | 0.031 µM
34 | C[C@H](Nc1ncnc2[nH]cc(F)c12)c1nn2cccc2c(=O)n1-c1ccccc1 [Example 81, (S)-2-(1-(5-Fluoro-7H-pyrrolo[2,3-d]pyrimidin-4-ylamino)ethyl)-3-phenylpyrrolo[1,2-f][1,2,4]triazin-4(3H)-one] | 0.009 µM
